The source of these data is patent publication US10611760B2, “Therapeutic compounds as inhibitors of the orexin-1 receptor” (C4X Discovery Limited, priority 2014, dated 2020).

Broadly, the pIC50 is the IC50 on a negative log10 scale, so that one unit is a factor of ten.

Common to all, as to type: cell-based
One test deals with T1, orexin-1 (Homo sapiens, UniProt O43613).
T1 construct: expressed in transfected cells
T1 sequence (O43613 1-425): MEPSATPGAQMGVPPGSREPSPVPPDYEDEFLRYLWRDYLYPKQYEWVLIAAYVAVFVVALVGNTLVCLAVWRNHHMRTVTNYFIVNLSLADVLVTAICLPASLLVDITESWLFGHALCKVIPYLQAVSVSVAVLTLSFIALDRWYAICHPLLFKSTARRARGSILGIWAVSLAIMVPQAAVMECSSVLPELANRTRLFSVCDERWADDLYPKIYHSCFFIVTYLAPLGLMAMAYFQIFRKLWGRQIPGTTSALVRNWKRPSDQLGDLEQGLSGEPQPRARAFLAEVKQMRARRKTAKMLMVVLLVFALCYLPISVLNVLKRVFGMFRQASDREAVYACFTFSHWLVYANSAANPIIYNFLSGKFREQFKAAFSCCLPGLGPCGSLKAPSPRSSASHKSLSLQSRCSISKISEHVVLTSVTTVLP
The test can be described thus: Antagonism against orexin-1 in the aforementioned (above identified) intracellular calcium assays. An excerpt: Antagonism against orexin receptors has been measured for each example compound using at least one of the following procedures. […] These values may fluctuate depending on the daily cellular assay performance. Fluctuations of this kind are known to those skilled in the art. […] Data highlighted with an asterix (*) is derived from a single experiment, otherwise all data reported is an average of at least two independant replicate experiments. […]

Test [1] concerns the target T2, hOX1R (Homo sapiens, UniProt O43613).
T2 sequence (O43613 1-425): T1 sequence (O43613 1-425)
As to the kind of experiment: Intracellular calcium measurements using stable-replicating cells, Method B (CHO cells, FLIPR Tetra), OX1. Particulars: orexin A at EC75, read-out: pIC50 OX1 (converted). (In general: A change in cytosolic calcium serves as a functional read-out for many receptors and channels.)

Test [2] has as its target T2, hOX1R. The test can be described thus: Intracellular calcium measurements using division-arrested cells, OX1. The following applies: agonist orexin A at 2×EC50, * = single experiment, otherwise average of at least two, read-out: pIC50 OX1 (converted). The method, boiled down:
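Division-arrested cells expressing human OX1 or OX2 were seeded for 16 h, then loaded with Calcium 5 dye plus probenecid for 1 h at 37 °C. Compounds in HEPES-buffered HBSS with 0.1% BSA, pH 7.4, top final concentration 10 μM, were added 10 min before the FlexStation calcium read.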

For test [3], the target named is T3, hOX2R (Homo sapiens, UniProt O43614).
T3 sequence (O43614 1-444): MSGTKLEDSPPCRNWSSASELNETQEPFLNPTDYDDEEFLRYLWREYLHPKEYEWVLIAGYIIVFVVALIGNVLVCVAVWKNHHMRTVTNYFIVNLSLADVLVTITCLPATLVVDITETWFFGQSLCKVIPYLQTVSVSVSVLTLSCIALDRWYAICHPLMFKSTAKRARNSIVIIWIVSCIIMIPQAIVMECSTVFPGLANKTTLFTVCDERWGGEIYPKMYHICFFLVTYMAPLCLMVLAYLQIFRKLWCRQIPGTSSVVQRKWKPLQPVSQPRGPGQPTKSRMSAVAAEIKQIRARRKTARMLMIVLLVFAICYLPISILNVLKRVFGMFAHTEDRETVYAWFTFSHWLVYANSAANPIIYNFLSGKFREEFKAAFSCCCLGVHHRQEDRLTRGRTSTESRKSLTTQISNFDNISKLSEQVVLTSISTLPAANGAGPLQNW
The test can be described thus: Intracellular calcium measurements using stable-replicating cells, Method B (CHO cells, FLIPR Tetra), OX2. Particulars: orexin A at EC75, read-out: pIC50 OX2 (converted). How it is done:
(§1) Intracellular Calcium Measurements Using Stable-replicating Cells:
Human OX1 or human OX2 receptor expressing CHO cells are plated into 384 well black, clear bottom, CellBIND plates at a seeding density of 10,000 cells/75 μL growth media. The seeded plates are incubated at 37° C. in air supplemented with 5% CO2 overnight.
The next day media is removed and replaced with 30 μL/well of cell loading buffer (a vial of Calcium 5 is solubilized in 20 mL of assay buffer) and the cells incubated for 1 hr at 37° C. The serially diluted test compounds (10 μL/well) are added to the cell plate by the FLIPR Tetra and the addition is monitored for 5 mins by the instrument. The cell plate is then removed and incubated for additional 25 mins in a humidified incubator at […] prior to being placed back into the FLIPR Tetra. Finally 10 μL of orexin A in assay buffer +0.1% (w/v) bovine serum albumin is dispensed by the FLIPR Tetra at an EC75 concentration determined for each assay run. Fluorescence is measured at excitation and emission wavelengths of 485 nm and 525 nm respectively and data analyzed using GraphPad Prism for the EC75 value of orexin A and Aplus to determine an IC50 value for each test compound.

Test [4] addresses T2, hOX1R. As to the kind of experiment: Intracellular calcium measurements using stable-replicating cells, Method A, OX1. Particulars: orexin-A at 4×EC50, * = single experiment, read-out: pIC50 OX1 (converted). How it is done: as §1
(§2) Method A (Table 2): Test compounds are prepared as 10 mM stock solutions in DMSO, warmed briefly for 20 seconds at 37° C. and serially diluted in half log concentrations with DMSO followed by dilution with assay buffer (HBSS (Sigma-Aldrich, H8264) containing 10 mM HEPES (Invitrogen, 15630080) and pH adjusted to 7.4) to a top final assay concentration of 10 μM.
(§3) Human OX1 (CT-A674) and human OX2 (CT-A675) receptor-expressing stable-replicating cells are grown in a culture medium, Ham F12 (Invitrogen, 31765-035) containing 10% fetal bovine serum (Invitrogen, 16000044), 1% non-essential amino acids (Invitrogen, 11140-050), 100 U/mL Penicillin/Streptomycin (Invitrogen, 15140-122) and G418 (Invitrogen, 11811023) at a concentration of 400 μg/mL. The cells are seeded at a density of 7,000 cells/well into black, clear bottom 384-well plates (Corning, 3683) and incubated at 37° C. in air supplemented with 5% CO2 for 16 hrs.
(§4) Loading dye (25 μL/well), prepared from a FLIPR Calcium 6 Assay kit (Molecular Devices, R8190-Explorer) according to the manufacturer's instructions, and the serially diluted test compounds (10 μL/well) are added to the plate. The plate is then incubated for 30 mins at 37° C. in 5% CO2, then for 30 mins at ambient temperature and placed into a FlexStation III reader.

Test [5] deals with T3, hOX2R. The test can be described thus: Intracellular calcium measurements using stable-replicating cells, Method A, OX2. The following applies: orexin-A at 4×EC50, * = single experiment, read-out: pIC50 OX2 (converted). As for the experimental part: as §1, §2, §3, §4

pIC50: −log10 of the molar value. Some results are limits rather than exact numbers.

`CC[C@@H](CNc1ccc2nccn2c1)N(C)C(=O)c1cc(Cl)ccc1-n1nccn1` [(S)-5-chloro-N-(1-(imidazo[1,2-a]pyridin-6-ylamino)butan-2-yl)-N-methyl-2-(2H-1,2,3-triazol-2-yl)benzamide]: on orexin-1, the pIC50 was < 5.00.

As for `CC[C@@H](COc1nc2ccccc2n1C)NC(=O)c1cc(C)ccc1-n1nccn1` [(S)-5-methyl-N-(1-((1-methyl-1H-benzo[d]imidazol-2-yl)oxy)butan-2-yl)-2-(2H-1,2,3-triazol-2-yl)benzamide], the pIC50 at orexin-1 was < 5.00.

As to `CC[C@@H](CNc1ncc(C(F)(F)F)cn1)N(C)C(=O)c1nc(C(C)(C)O)ccc1-n1nccn1` [(S)-6-(2-hydroxypropan-2-yl)-N-methyl-3-(2H-1,2,3-triazol-2-yl)-N-(1-((5-(trifluoromethyl)pyrimidin-2-yl)amino)butan-2-yl)picolinamide], on orexin-1, the pIC50 is < 5.00.

In the case of `CCOC(=O)c1ccc(NC[C@H](CC)N(C)C(=O)c2cc(Cl)ccc2-n2nccn2)nc1` [(S)-ethyl 6-((2-(5-chloro-N-methyl-2-(2H-1,2,3-triazol-2-yl)benzamido)butyl)amino) nicotinate], at orexin-1, the pIC50 was < 5.00.

On to `CC[C@@H](COc1nc2ccccc2n1C)N(C)C(=O)c1cc(C)ccc1-n1nccn1` [(S)—N,5-dimethyl-N-(1-((1-methyl-1H-benzo[d]imidazol-2-yl)oxy)butan-2-yl)-2-(2H-1,2,3-triazol-2-yl)benzamide], for which the negative logarithm of the IC50 (pIC50) at orexin-1 is < 5.00.

Turning to `CC[C@@H](CNc1ccc(Cl)cn1)NC(=O)c1cc(C)ccc1N1CCN(C)CC1` [(S)—N-(1-((5-chloropyridin-2-yl)amino)butan-2-yl)-5-methyl-2-(4-methylpiperazin-1-yl)benzamide], the pIC50 on orexin-1 was < 5.00.

As for `CC[C@@H](CNc1ccc(Cl)cn1)NC(=O)c1cc(C)ccc1N1CCOCC1` [(S)—N-(1-((5-chloropyridin-2-yl)amino)butan-2-yl)-5-methyl-2-morpholinobenzamide], the pIC50 at orexin-1 is < 5.00.

For `CC[C@@H](CNc1ccc(Cl)cn1)N(C)C(=O)c1nc(C)ncc1-n1nccn1` [(S)—N-(1-((5-chloropyridin-2-yl)amino)butan-2-yl)-N,2-dimethyl-5-(2H-1,2,3-triazol-2-yl)pyrimidine-4-carboxamide], on orexin-1, the pIC50 is < 5.00.

On to `CC[C@@H](CNc1ncc(C(F)(F)F)cn1)N(C)C(=O)c1nc(C)ccc1-n1nccn1` [Example 46, (S)—N,6-dimethyl-3-(2H-1,2,3-triazol-2-yl)-N-(1-((5-(trifluoromethyl)pyrimidin-2-yl)amino)butan-2-yl)picolinamide], for which the IC50 on hOX1R [1] is 3.16 nM; at hOX1R [2], 20 nM; on hOX2R [3] it was > 10000 nM; on hOX1R [4] it was 31.6 nM; at hOX2R [5] it was > 10000 nM.

Turning to `CC[C@@H](CNc1cnc(C(F)(F)F)cn1)N(C)C(=O)c1nc(C)ccc1-n1nccn1` [Example 47, (S)—N,6-dimethyl-3-(2H-1,2,3-triazol-2-yl)-N-(1-((5-(trifluoromethyl)pyrazin-2-yl)amino)butan-2-yl)picolinamide], the IC50 at hOX1R [1] is 2.51 nM; at hOX1R [2], 31.6 nM; at hOX2R [3], > 3980 nM; on hOX1R [4], 3.98 nM; at hOX2R [5] it was > 7940 nM.

With `CC[C@@H](CNc1ncc2ccccc2n1)N(C)C(=O)c1nc(C)ccc1-n1nccn1` [Example 61, (S)—N,6-dimethyl-N-(1-(quinazolin-2-ylamino)butan-2-yl)-3-(2H-1,2,3-triazol-2-yl)picolinamide], the IC50 at hOX1R [1] is 2.51 nM; on hOX2R [3], 3160 nM; on hOX1R [4], 3.98 nM; at hOX2R [5], 1580 nM.

Take `CC[C@@H](CNc1nc2ccccc2s1)N(C)C(=O)c1nc(C)ccc1-n1nccn1` [Example 63, (S)—N-(1-(benzo[d]thiazol-2-ylamino)butan-2-yl)-N,6-dimethyl-3-(2H-1,2,3-triazol-2-yl)picolinamide]: the IC50 is 1.58 nM at hOX1R [1], 501 nM at hOX2R [3], 1.58 nM at hOX1R [4] and 1260 nM on hOX2R [5].

With `CC[C@@H](CNc1ccc2ccccc2n1)N(C)C(=O)c1nc(C)ccc1-n1nccn1` [Example 75, (S)—N,6-dimethyl-N-(1-(quinolin-2-ylamino)butan-2-yl)-3-(2H-1,2,3-triazol-2-yl)picolinamide], the IC50 on hOX1R [1] was 1.26 nM; on hOX2R [3], 2510 nM; at hOX1R [4], 6.31 nM; on hOX2R [5] it was 2000 nM.

As for `CC[C@@H](CNc1ccc2ccccc2n1)N(C)C(=O)c1cc(Cl)ccc1-n1nccn1` [Example 77, (S)-5-chloro-N-methyl-N-(1-(quinolin-2-ylamino)butan-2-yl)-2-(2H-1,2,3-triazol-2-yl)benzamide], the IC50 was 0.794 nM on hOX1R [1], 501 nM on hOX2R [3], 7.94 nM at hOX1R [4] and 1260 nM at hOX2R [5].

As for `CC[C@@H](CNc1ncc(C(F)(F)F)cn1)N(C)C(=O)c1cccc2cccnc12` [Example 79, (S)—N-methyl-N-(1-((5-(trifluoromethyl)pyrimidin-2-yl)amino)butan-2-yl)quinoline-8-carboxamide], the IC50 on hOX1R [1] was 79.4 nM; at hOX2R [3], 2510 nM; at hOX1R [4], 100 nM; on hOX2R [5] it was 1580 nM.

Turning to `CC[C@@H](CNc1ncc(C(F)(F)F)cn1)N(C)C(=O)c1cc(Cl)cc2cccnc12` [Example 80, (S)-6-chloro-N-methyl-N-(1-((5-(trifluoromethyl)pyrimidin-2-yl)amino)butan-2-yl)quinoline-8-carboxamide], the IC50 at hOX1R [1] was 10 nM; at hOX2R [3], 316 nM; at hOX1R [4] it was 25.1 nM; at hOX2R [5] it was 200 nM.

Turning to `CC[C@@H](CNc1ncc(C(F)(F)F)cn1)N(C)C(=O)c1nc(N(C)C)cc2ccccc12` [Example 81, (S)-3-(dimethylamino)-N-methyl-N-(1-((5-(trifluoromethyl)pyrimidin-2-yl)amino)butan-2-yl)isoquinoline-1-carboxamide], the IC50 is 5.01 nM on hOX1R [1], 251 nM at hOX2R [3], 39.8 nM at hOX1R [4] and 251 nM on hOX2R [5].
